Measurements: patent US6602827B1, “Herbicidal 5-chlorodifluoromethyl-1,3,4-thiadiazol-2-yl-oxyacetanilides” (Bayer Aktiengesellschaft, priority 1999, dated 2003)

Tests used:
Soya = experiment: Pre-emergence test/greenhouse; type: in vivo; settings: 125 g of ai./ha, rated after three weeks vs untreated control, 0% = no effect, 100% = total destruction
Method: (§1) Pre-emergence Test Solvent: 5 parts by weight of acetone Emulsifier: 1 part by weight of alkylaryl polyglycol ether To produce a suitable preparation of active compound, 1 part by weight of active compound is mixed with the stated amount of solvent, the stated amount of emulsifier is added and the concentrate is diluted with water to the desired concentration. Seeds of the test plants are sown in normal soil. After 24 hours, the soil is sprayed with the preparation of active compound such that the particular amount of active compound desired is applied per unit area. The active compound concentration in the spray liquor is chosen so that the particular amount of active compound desired is applied in 1000 liters of water per hectare. After three weeks, the degree of damage to the plants is rated in % damage in comparison to the development of the untreated control. The figures denote: 0%=no effect (like untreated control) 100%=total destruction

Setaria [1] = experiment: Pre-emergence test/greenhouse; type: in vivo; settings: 125 g of ai./ha, rated after three weeks vs untreated control, 0% = no effect, 100% = total destruction
Method: as §1

Galium [2] = experiment: Pre-emergence test/greenhouse; type: in vivo; settings: 125 g of ai./ha, rated after three weeks vs untreated control, 0% = no effect, 100% = total destruction
Method: as §1

Wheat = experiment: Pre-emergence test/greenhouse; type: in vivo; settings: 125 g of ai./ha, rated after three weeks vs untreated control, 0% = no effect, 100% = total destruction
Method: as §1

Eriochloa = experiment: Pre-emergence test/greenhouse; type: in vivo; settings: 125 g of ai./ha, rated after three weeks vs untreated control, 0% = no effect, 100% = total destruction
Method: as §1

Lolium = experiment: Pre-emergence test/greenhouse; type: in vivo; settings: 125 g of ai./ha, rated after three weeks vs untreated control, 0% = no effect, 100% = total destruction
Method: as §1

Matricaria = experiment: Pre-emergence test/greenhouse; type: in vivo; settings: 125 g of ai./ha, rated after three weeks vs untreated control, 0% = no effect, 100% = total destruction
Method: as §1

[3] = tested on: crop plants, such as maize; experiment: Post-emergence test, crop tolerance; type: in vivo; settings: in words
Method: (§2) Solvent: 5 parts by weight of acetone
(§3) Emulsifier: 1 part by weight of alkylaryl polyglycol ether
(§4) To produce a suitable preparation of active compound, 1 part by weight of active compound is mixed with the stated amount of solvent, the stated amount of emulsifier is added and the concentrate is diluted with water to the desired concentration.
(§5) Test plants which have a height of 5 to 15 cm are sprayed with the preparation of active compound such that the particular amounts of active compound desired are applied per unit area. The concentration of the spray liquor is chosen so that the particular amounts of active compound desired are applied in 1000 1 of water/ha.
(§6) After three weeks, the degree of damage to the plants is rated in % damage in comparison to the development of the untreated control.
(§7) 0%=no effect (like untreated control))

weeds [4] = experiment: Post-emergence test, overall activity against weeds; type: in vivo; settings: in words
Method: as §2, §3, §4, §5, §6, §7

weeds [5] = experiment: Pre-emergence test, overall activity against weeds; type: in vivo; settings: in words
Method: as §1

[6] = tested on: crop plants, such as soya and wheat; experiment: Pre-emergence test, crop tolerance; type: in vivo; settings: in words
Method: as §1

Setaria [7] = experiment: Post-emergence test/greenhouse; type: in vivo; settings: 1000 g of ai./ha, rated after three weeks vs untreated control, 0% = no effect, 100% = total destruction
Method: as §2, §3, §4, §5, §6, §7

Galium [8] = experiment: Post-emergence test/greenhouse; type: in vivo; settings: 1000 g of ai./ha, rated after three weeks vs untreated control, 0% = no effect, 100% = total destruction
Method: as §2, §3, §4, §5, §6, §7

Xanthium = experiment: Post-emergence test/greenhouse; type: in vivo; settings: 1000 g of ai./ha, rated after three weeks vs untreated control, 0% = no effect, 100% = total destruction
Method: as §2, §3, §4, §5, §6, §7

Maize = experiment: Post-emergence test/greenhouse; type: in vivo; settings: 1000 g of ai./ha, rated after three weeks vs untreated control, 0% = no effect, 100% = total destruction
Method: as §2, §3, §4, §5, §6, §7

In the case of `CC(C)N(C(=O)COc1nnc(C(F)(F)Cl)s1)c1ccc(F)cc1` [Example 1, N-i-propyl-N-(4-fluoro-phenyl)-2-(5-chlorodifluoromethyl-1,3,4-thiadiazol-2-yl-oxy)-acetamide], the “degree of damage, Soya” value (Soya) is reported as 0%, the “degree of damage, Setaria” value (Setaria [1]) is reported as 100% and the “degree of damage, Galium” value (Galium [2]) is reported as 90%. For the same molecule, the “degree of damage, Wheat” value (Wheat) was 0%, the “degree of damage, Eriochloa” value (Eriochloa) was 100% and the “degree of damage, Lolium” value (Lolium) was 90%. The “degree of damage, Matricaria” value (Matricaria) was 100%, the “tolerance by crop plants” value [3] was “tolerated well” and the melting point was 98 °C. For the same molecule, the activity against weeds (weeds [4]) was “strong activity”, the activity against weeds (weeds [5]) was “very strong activity” and the “tolerance by crop plants” value [6] was “tolerated well”. For the same molecule, the “degree of damage, Setaria” value (Setaria [7]) was 95%, the “degree of damage, Galium” value (Galium [8]) was 95% and the “degree of damage, Xanthium” value (Xanthium) was 80%. For the same molecule, the “degree of damage, Maize” value (Maize) was 30%.
